These are literature values, as cited in patent publication US20040241255A1, “Pharmaceutical composition containing valerina officinalis extract” (priority 2001, published 2004).

Structures are written as SMILES.

The subject of the data set is apnea during NREM sleep in rats. To be noted: injected intraperitoneally.
For `C[C@H](Cc1ccccc1)Nc1ncnc2c1ncn2[C@@H]1O[C@H](CO)[C@@H](O)[C@H]1O` [phenylisopropyl adenosine], the “Suppression of apnea during NREM sleep” value is listed as “dose-dependent suppression of apnea”.
Consider `CCNC(=O)C1OC(n2cnc3c(N)nc(NCCc4ccc(CCC(=O)O)cc4)nc32)C(O)C1O.Cl` (stereo not drawn) [2-p-(2-carboxyethyl)-phenethyl-amino-5′-N-ethylcarboxamido-adenosine hydrochloride], for which the “Suppression of apnea during NREM sleep” value is given as “dose-dependent suppression of apnea”.
`OC[C@H]1O[C@@H](n2cnc3c(N[C@H]4CCC[C@@H]4O)ncnc32)[C@H](O)[C@@H]1O` (relative stereo) [N-[(1S,trans)-2-hydroxycyclopentyl]-adenosine]: the “Suppression of apnea during NREM sleep” value is reported as “dose-dependent suppression of apnea”.
